Measurements published in ChEMBL document CHEMBL6177991, “Discovery of P11-2: A Potent First-in-Class MNK1-Targeting PROTAC Degrader for the Treatment of Cancer” (J Med Chem, 2025).
The source made the active and inactive calls. The rule behind the calls is not given here.

Key:
MV4-11 [1] = assay: Anti-proliferative activity against human MV4-11 cells measured after 72 hrs by CCK8 assay; conditions: MV4-11, 72 h
MM1.S = assay: Anti-proliferative activity against human MM1.S cells measured after 120 hrs by CCK8 assay
MV4-11 [2] = assay: Effect on MNK2 expression level in human MV4-11 cells at 300 nM incubated for 24 hrs by DIA-based quantitative proteomics analysis; type: functional, cell-based
MV4-11 [3] = assay: Downregulation of SUFU expression level in human MV4-11 cells at 300 nM incubated for 24 hrs by DIA-based quantitative proteomics analysis; type: functional, cell-based
MV4-11 [4] = assay: Effect on IKZF3 expression in human MV4-11 cells at 10 to 1000 nM incubated for 24 hrs by immunoblot analysis; type: functional, cell-based; conditions: dose 10-1000 nM
[5] = target: Protein cereblon/MAP kinase-interacting serine/threonine-protein kinase 2 (Homo sapiens, UniProt Q96SW2+Q9HBH9); assay: PROTAC activity at CRBN/MNK2 in human MV4-11 cells assessed as inhibition of phosphorylated eIF4E level incubated for 24 hrs by immunoblot analysis; type: cell-based
MV4-11 [6] = assay: Upregulation of cell cycle regulation related protein expression in human MV4-11 cells by GO analysis; type: functional, cell-based
MV4-11 [7] = assay: Upregulation of protein translation pathway related protein expression in human MV4-11 cells by GO analysis; type: functional, cell-based
MV4-11 [8] = assay: Upregulation of ubiquitin-mediated protein degradation pathway related protein expression in human MV4-11 cells by GO analysis; type: functional, cell-based
MV4-11 [9] = assay: Upregulation of PI3K-Akt pathway related protein expression in human MV4-11 cells by GO analysis; type: functional, cell-based
MV4-11 [10] = assay: Upregulation of mTOR pathway related protein expression in human MV4-11 cells by GO analysis; type: functional, cell-based
MV4-11 [11] = assay: Upregulation of ubiquitin-mediated proteolysis pathway related protein expression in human MV4-11 cells by GO analysis; type: functional, cell-based
MV4-11 [12] = assay: Upregulation of RNA transport pathways related protein expression in human MV4-11 cells by GO analysis; type: functional, cell-based
MV4-11 [13] = assay: Upregulation of mTOR pathway related protein expression in human MV4-11 cells by KEGG analysis; type: functional, cell-based
MV4-11 [14] = assay: Upregulation of cell cycle signaling pathways related protein expression in human MV4-11 cells by KEGG analysis; type: functional, cell-based
MV4-11 [15] = assay: Upregulation of ubiquitin-mediated proteolysis pathway related protein expression in human MV4-11 cells by KEGG analysis; type: functional, cell-based
MV4-11 [16] = assay: Induction of apoptosis in human MV4-11 cells assessed as viable cells at 30 nM incubated for 24 hrs by Annexin V-FITC/PI dual staining based flow cytometric analysis (reference value: 94.9 %); type: functional; conditions: read-out: Activity
MV4-11 [17] = assay: Induction of apoptosis in human MV4-11 cells assessed as late apoptotic cells at 30 nM incubated for 24 hrs by Annexin V-FITC/PI dual staining based flow cytometric analysis (reference value: 1.48 %); type: functional
MV4-11 [18] = assay: Induction of apoptosis in human MV4-11 cells assessed as early apoptotic cells at 100 nM incubated for 24 hrs by Annexin V-FITC/PI dual staining based flow cytometric analysis (reference value: 3.42 %); type: functional
MV4-11 [19] = assay: Induction of apoptosis in human MV4-11 cells assessed as late apoptotic cells at 100 nM incubated for 24 hrs by Annexin V-FITC/PI dual staining based flow cytometric analysis (reference value: 1.48 %); type: functional
MV4-11 [20] = assay: Induction of apoptosis in human MV4-11 cells assessed as necrotic cells at 100 nM incubated for 24 hrs by Annexin V-FITC/PI dual staining based flow cytometric analysis (reference value: 0.16 %); type: functional
MV4-11 [21] = assay: Induction of apoptosis in human MV4-11 cells assessed as late apoptotic cells at 300 nM incubated for 24 hrs by Annexin V-FITC/PI dual staining based flow cytometric analysis (reference value: 1.48 %); type: functional
[22] = Cmax in male Sprague-Dawley rat at 20 mg/kg, po measured up to 24 hrs by LC-MS analysis; type: ADME, organism-based; conditions: in vivo
[23] = AUC (0 to t) in male Sprague-Dawley rat at 5 mg/kg, ip measured up to 24 hrs by LC-MS analysis; type: ADME, organism-based; conditions: in vivo
[24] = Tmax in male Sprague-Dawley rat at 20 mg/kg, po measured up to 24 hrs by LC-MS analysis; type: ADME, organism-based; conditions: in vivo
[25] = Half life in male Sprague-Dawley rat at 1 mg/kg, iv measured up to 24 hrs by LC-MS analysis; type: ADME, organism-based; conditions: in vivo
[26] = Half life in male Sprague-Dawley rat at 20 mg/kg, po measured up to 24 hrs by LC-MS analysis; type: ADME, organism-based; conditions: in vivo
[27] = Half life in male Sprague-Dawley rat at 5 mg/kg, ip measured up to 24 hrs by LC-MS analysis; type: ADME, organism-based; conditions: in vivo
[28] = Clearance in male Sprague-Dawley rat at 1 mg/kg, iv measured up to 24 hrs by LC-MS analysis; type: ADME, organism-based; conditions: in vivo
[29] = Hepatotoxicity in nude female NSG mouse xenografted with human MV4-11 cells assessed as change in serum ALP level at 20 mg/kg, ip qd administrated for 16 days; type: toxicity, organism-based; conditions: in vivo, 384 h, time 16 day
[30] = Toxicity in male ICR mouse assessed as histopathological change in heart at 100 mg/kg, ip measured after 14 days by hematoxylin and eosin staining based analysis; type: organism-based; conditions: in vivo, 336 h, time 14 day
[31] = Toxicity in male ICR mouse assessed as histopathological change in liver at 100 mg/kg, ip measured after 14 days by hematoxylin and eosin staining based analysis; type: organism-based; conditions: in vivo, 336 h, time 14 day
[32] = Toxicity in male ICR mouse assessed as histopathological change in spleen at 100 mg/kg, ip measured after 14 days by hematoxylin and eosin staining based analysis; type: organism-based; conditions: in vivo, 336 h, time 14 day
[33] = Toxicity in male ICR mouse assessed as histopathological change in lung at 100 mg/kg, ip measured after 14 days by hematoxylin and eosin staining based analysis; type: organism-based; conditions: in vivo, 336 h, time 14 day
[34] = Toxicity in male ICR mouse assessed as histopathological change in kidney at 100 mg/kg, ip measured after 14 days by hematoxylin and eosin staining based analysis; type: organism-based; conditions: in vivo, 336 h, time 14 day
[35] = Toxicity in male ICR mouse assessed as change in serum ALT level at 100 mg/kg, ip measured after 14 days; type: organism-based; conditions: in vivo, 336 h, time 14 day
[36] = Toxicity in male ICR mouse assessed as change in serum TBA level at 100 mg/kg, ip measured after 14 days; type: organism-based; conditions: in vivo, 336 h, time 14 day
[37] = Toxicity in male ICR mouse assessed as change in serum BUN level at 100 mg/kg, ip measured after 14 days; type: organism-based; conditions: in vivo, 336 h, time 14 day
[38] = Toxicity in male ICR mouse assessed as change in serum uric acid level at 100 mg/kg, ip measured after 14 days; type: organism-based; conditions: in vivo, 336 h, time 14 day
[39] = Toxicity in male ICR mouse assessed as change in serum AST level at 100 mg/kg, ip measured after 14 days; type: organism-based; conditions: in vivo, 336 h, time 14 day
[40] = Toxicity in nude female NSG mouse xenografted with human MV4-11 cells assessed as change in serum BUN level at 20 mg/kg, ip qd administrated for 16 days; type: organism-based; conditions: in vivo, 384 h, time 16 day
[41] = Toxicity in nude female NSG mouse xenografted with human MV4-11 cells assessed as change in serum creatinine level at 20 mg/kg, ip qd administrated for 16 days; type: organism-based; conditions: in vivo, 384 h, time 16 day

Protein cereblon/MAP kinase-interacting serine/threonine-protein kinase 2, sequence (Q9HBH9 whole entry): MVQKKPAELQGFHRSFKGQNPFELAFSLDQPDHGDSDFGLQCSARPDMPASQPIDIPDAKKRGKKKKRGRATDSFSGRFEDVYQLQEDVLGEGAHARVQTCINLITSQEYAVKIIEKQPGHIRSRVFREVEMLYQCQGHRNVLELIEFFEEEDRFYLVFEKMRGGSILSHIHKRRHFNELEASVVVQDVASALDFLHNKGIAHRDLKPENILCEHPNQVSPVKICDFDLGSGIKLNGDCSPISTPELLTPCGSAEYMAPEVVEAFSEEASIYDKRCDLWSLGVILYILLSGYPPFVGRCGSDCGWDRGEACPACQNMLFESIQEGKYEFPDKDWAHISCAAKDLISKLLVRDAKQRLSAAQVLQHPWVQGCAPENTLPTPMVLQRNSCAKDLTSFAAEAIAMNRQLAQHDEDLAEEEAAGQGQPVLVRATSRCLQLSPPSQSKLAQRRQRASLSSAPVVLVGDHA
Protein cereblon/MAP kinase-interacting serine/threonine-protein kinase 2, sequence (Q96SW2 whole entry): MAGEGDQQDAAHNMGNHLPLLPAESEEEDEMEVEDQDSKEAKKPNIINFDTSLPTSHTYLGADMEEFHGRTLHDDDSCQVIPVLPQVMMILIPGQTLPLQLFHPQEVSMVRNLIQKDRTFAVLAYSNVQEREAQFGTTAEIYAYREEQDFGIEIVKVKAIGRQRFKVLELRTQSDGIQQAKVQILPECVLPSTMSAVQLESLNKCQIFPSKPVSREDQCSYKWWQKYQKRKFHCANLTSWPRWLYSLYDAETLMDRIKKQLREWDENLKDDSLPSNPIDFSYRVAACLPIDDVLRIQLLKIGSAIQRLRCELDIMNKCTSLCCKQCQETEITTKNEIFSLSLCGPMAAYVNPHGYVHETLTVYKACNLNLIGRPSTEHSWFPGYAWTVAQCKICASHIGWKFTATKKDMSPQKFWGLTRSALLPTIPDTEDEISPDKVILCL

SMILES: O=C1CCC(N2Cc3c(NC(=O)CCCCCC(=O)N4CCC(C(=O)Nc5ncc(-c6ccccc6)s5)CC4)cccc3C2=O)C(=O)N1 (configuration not stated)
- IC50 (MV4-11 [1]): 45 nM
- IC50 (MM1.S): 240 nM
- Activity (MV4-11 [2]): No effect
- Activity (MV4-11 [3]): Active
- Activity (MV4-11 [4]): No effect
- IC50 [5]: 22.1 nM
- Activity (MV4-11 [6]): Active
- Activity (MV4-11 [7]): Active
- Activity (MV4-11 [8]): Active
- Activity (MV4-11 [9]): Active
- Activity (MV4-11 [10]): Active
- Activity (MV4-11 [11]): Active
- Activity (MV4-11 [12]): Active
- Activity (MV4-11 [13]): Active
- Activity (MV4-11 [14]): Active
- Activity (MV4-11 [15]): Active
- viability at 0.03 µM (MV4-11 [16]): 85.8%
- Activity (MV4-11 [17]): 7.49%
- Activity (MV4-11 [18]): 14.1%
- Activity (MV4-11 [19]): 13.7%
- Activity (MV4-11 [20]): 0.69%
- Activity (MV4-11 [21]): 42.1%
- Cmax [22]: 160 ng/mL
- AUC(0-t) at 24 h [23]: 9630 ng·h/mL
- Tmax [24]: 1.4 h
- half-life [25]: 4.3 h
- half-life [26]: 7.1 h
- half-life [27]: 5.2 h
- clearance [28]: 2.38 mL/min/kg
- Activity [29]: Non-toxic
- Activity [30]: Non-toxic
- Activity [31]: Non-toxic
- Activity [32]: Non-toxic
- Activity [33]: Non-toxic
- Activity [34]: Non-toxic
- Activity [35]: Non-toxic
- Activity [36]: Non-toxic
- Activity [37]: Non-toxic
- Activity [38]: Non-toxic
- Activity [39]: Non-toxic
- Activity [40]: Non-toxic
- Activity [41]: Non-toxic
